Results as given in the supplement of paper PMC10307832.

What was measured:
Assay in all cases: relative viability (nuclei count vs DMSO), 5 days (fraction); higher = more cells survive
Masitinib + Decitabine = compound: Cc1ccc(NC(=O)c2ccc(CN3CCN(C)CC3)cc2)cc1Nc1nc(-c2cccnc2)cs1 [Masitinib] + Nc1ncn([C@H]2C[C@H](O)[C@@H](CO)O2)c(=O)n1 [Decitabine] (partner 2 µM)
Summary of the method: (§1)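 Five library-drug doses in √10 steps were combined with a fixed anchor-drug dose, or a single drug was given alone, by pin tool to lung cancer cell lines in 1536-well plates the day after seeding. Nuclei were stained and counted after 5 days. Relative viability is the nuclei count in treated wells over that in vehicle wells, taken as the median of duplicate plates.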

[1] = compound: CC1=CC(=CC=C1)NC2=NC(=CS2)C3=CC=NC=C3 + C[C@@H](Oc1cc(-c2cnn(C3CCNCC3)c2)cnc1N)c1c(Cl)ccc(F)c1Cl [Crizotinib] (partner 1 µM)
Summary of the method: as §1

Masitinib + Palbociclib = compound: Cc1ccc(NC(=O)c2ccc(CN3CCN(C)CC3)cc2)cc1Nc1nc(-c2cccnc2)cs1 [Masitinib] + CC(=O)c1c(C)c2cnc(Nc3ccc(N4CCNCC4)cn3)nc2n(C2CCCC2)c1=O [Palbociclib] (partner 0.5 µM)
Summary of the method: as §1

[2] = compound: CC1=CC(=CC=C1)NC2=NC(=CS2)C3=CC=NC=C3 + C[C@]1(O)C[C@@H](c2nc(-c3ccc4ccc(-c5ccccc5)nc4c3)c3c(N)nccn32)C1 [Linsitinib] (partner 1 µM)
Summary of the method: as §1

Row | Cell Line | relative viability (Masitinib + Decitabine; first compound 0.01 µM) | relative viability (Masitinib + Decitabine; first compound 0.03162 µM) | relative viability (Masitinib + Decitabine; first compound 0.1 µM) | relative viability (Masitinib + Decitabine; first compound 0.3162 µM) | relative viability (Masitinib + Decitabine; first compound 1 µM) | relative viability ([1]; first compound 0.08 µM) | relative viability ([1]; first compound 0.253 µM) | relative viability ([1]; first compound 0.8 µM) | relative viability ([1]; first compound 2.53 µM) | relative viability ([1]; first compound 8 µM) | relative viability (Masitinib + Palbociclib; first compound 0.01 µM) | relative viability (Masitinib + Palbociclib; first compound 0.03162 µM) | relative viability (Masitinib + Palbociclib; first compound 0.1 µM) | relative viability (Masitinib + Palbociclib; first compound 0.3162 µM) | relative viability (Masitinib + Palbociclib; first compound 1 µM) | relative viability ([2]; first compound 0.08 µM) | relative viability ([2]; first compound 0.253 µM) | relative viability ([2]; first compound 0.8 µM) | relative viability ([2]; first compound 2.53 µM) | relative viability ([2]; first compound 8 µM)
1 | 201T | 0.762 | 0.861 | 0.848 | 0.921 | 0.881 | 1.01 | 0.993 | 0.955 | 1.06 | 0.869 | 0.326 | 0.386 | 0.364 | 0.369 | 0.375 | 1.03 | 1.05 | 1 | 0.817 | 0.852
2 | A549 | 0.249 | 0.251 | 0.219 | 0.433 | 0.278 | 0.75 | 0.73 | 0.776 | 0.735 | 0.627 |  |  |  |  |  | 0.486 | 0.684 | 0.619 | 0.532 | 0.562
3 | A-427 | 0.491 | 0.539 | 0.567 | 0.515 | 0.541 | 0.851 | 0.944 | 0.751 |  | 0.692 | 0.453 | 0.557 | 0.548 | 0.525 | 0.488 | 1.16 | 1.03 | 1.09 |  | 1.12
4 | ABC-1 | 1.02 | 1.14 | 1.24 | 1.06 | 0.865 | 0.851 | 0.893 | 1.03 | 0.934 | 1.19 | 0.699 | 0.855 | 0.784 | 0.598 | 0.661 | 0.758 | 0.708 | 0.584 | 0.642 | 0.709
5 | BEN | 0.727 | 0.739 | 0.753 | 0.699 | 0.728 | 1.11 | 0.948 | 0.879 | 0.779 | 0.76 | 0.42 | 0.431 | 0.51 | 0.513 | 0.46 | 0.881 | 0.925 | 0.89 | 0.777 | 0.813
6 | CAL-12T |  |  |  |  |  | 0.547 | 0.634 | 0.612 | 0.62 | 0.604 | 0.445 | 0.333 | 0.455 | 0.305 | 0.502 | 0.766 | 0.801 | 0.747 | 0.847 | 0.847
7 | COR-L23 | 0.388 | 0.412 | 0.463 | 0.329 | 0.359 | 0.553 | 0.483 | 0.487 | 0.646 | 0.583 | 0.296 | 0.257 | 0.298 | 0.329 | 0.279 | 0.821 | 0.89 | 0.62 | 0.892 | 0.843
8 | COR-L 105 | 0.617 | 0.658 | 0.619 | 0.61 | 0.639 | 0.626 | 0.604 | 0.634 | 0.701 | 0.468 | 0.422 | 0.394 | 0.435 | 0.382 | 0.348 | 0.822 | 0.738 | 0.803 | 0.808 | 0.653
9 | Calu-6 |  |  |  |  |  | 0.698 | 0.639 | 0.619 | 0.634 | 0.727 |  |  |  |  |  | 0.765 | 0.934 | 0.871 | 0.879 | 0.756
10 | ChaGo-K-1 | 0.553 | 0.526 | 0.536 | 0.526 | 0.534 | 1.08 | 1.07 | 1.14 | 1.07 | 1.15 | 0.954 | 0.952 | 0.966 | 0.972 | 0.897 |  |  |  |  | 
11 | EBC-1 |  |  |  |  |  | 0.176 | 0.218 | 0.198 | 0.17 | 0.163 |  |  |  |  |  | 0.621 | 0.698 | 0.757 | 0.686 | 0.786
12 | EKVX | 0.342 | 0.31 | 0.35 |  | 0.541 | 0.907 | 0.893 | 0.795 | 0.801 | 0.497 | 0.35 | 0.333 | 0.343 |  | 0.295 | 0.914 | 0.778 | 0.882 | 0.882 | 0.705
13 | EMC-BAC-2 | 0.771 |  | 0.918 | 1.02 | 0.957 | 0.642 | 0.7 | 0.717 | 0.643 | 0.729 | 0.434 | 0.473 | 0.509 | 0.524 | 0.51 | 0.712 | 0.817 | 0.781 | 0.802 | 0.718
14 | EPLC-272H | 0.369 | 0.344 | 0.358 | 0.388 | 0.313 | 0.854 |  | 0.877 |  | 0.885 | 0.299 | 0.331 | 0.327 | 0.295 | 0.329 | 1.08 |  | 1.05 |  | 1.19
15 | H3255 | 0.488 | 0.67 | 0.439 | 0.626 | 0.534 | 0.721 | 0.926 | 0.821 | 0.795 | 0.853 | 0.294 | 0.35 | 0.299 | 0.321 | 0.326 | 0.95 | 0.951 | 0.966 | 0.795 | 0.956
